Assay results from patent US20090018111A1, “Novel Antimicrobial Medicament” (priority 2004, published 2009).
Read-outs that look alike come from different tables or passages of the source.

Key:
Experiment in all cases: Sensitivity test (agar dilution)
S. epidermidis IAM1296 = format: cell-based, Staphylococcus epidermidis
Procedure, shortened: (§1)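 Water-dissolved compounds, alone or mixed, were incorporated into Mueller Hinton agar at twofold serial concentrations. Spot inoculation used about 5 μl of about 10^6 CFU/ml suspension.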

B. subtilis ATCC6633 = format: cell-based, Bacillus subtilis; settings: Bacillus subtilis
Procedure, shortened: as §1

E. faecium ATCC19434 = format: cell-based, Enterococcus faecium; settings: for MIC: Enterococcus faecium
Procedure, shortened: as §1

P. mirabiris GN2425 = format: cell-based, Proteus mirabilis; settings: Proteus mirabilis
Procedure, shortened: as §1

K. pneumoniae ATCC10031 = format: cell-based, Klebsiella pneumoniae; settings: Klebsiella pneumoniae
Procedure, shortened: as §1

E. coli ML1410 = format: cell-based, Escherichia coli; settings: Escherichia coli
Procedure, shortened: as §1

E. coli NIHJ JC-2 = format: cell-based, Escherichia coli; settings: Escherichia coli
Procedure, shortened: as §1

C[C@H]1C=C(c2csc(SC3=C(C(=O)O)N4C(=O)[C@H]([C@@H](C)O)[C@H]4[C@H]3C)n2)CN1 [SM, (4R,5S,6S)-6-[(1R)-1-Hydroxyethyl]-4-methyl-3-({4-[(5S)-5-methyl-2,5-dihydro-1H-pyrrol-3-yl]-1,3-thiazol-2-yl}sulfanyl)-7-oxo-1-azabicyclo[3.2.0]hept-2-ene-2-carboxylic acid]
0.125 µg/mL: MIC (E. faecium ATCC19434; ATCC19434, Concomitant (AZT:SM = 1:1), E. faecium ATCC19434, read-out: MIC concomitant) | MIC (E. faecium ATCC19434; ATCC19434, Concomitant (CAZ:SM = 1:1), E. faecium ATCC19434, read-out: MIC concomitant) | MIC (E. faecium ATCC19434; ATCC19434, Concomitant (IPM:SM = 1:1), read-out: MIC) | MIC (E. faecium ATCC19434; ATCC19434, Concomitant (MEPM:SM = 1:1), read-out: MIC) | MIC (E. faecium ATCC19434; ATCC19434, Concomitant (MEPM:SM = 1:4), read-out: MIC) | MIC (E. faecium ATCC19434; ATCC19434, Concomitant (PAPM:SM = 1:1), E. faecium ATCC19434, read-out: MIC concomitant) | MIC (E. faecium ATCC19434; ATCC19434, Concomitant (PIPC:SM = 1:1), E. faecium ATCC19434, read-out: MIC concomitant) | MIC alone (E. faecium ATCC19434; drug alone, E. faecium ATCC19434) | MIC (P. mirabiris GN2425; GN2425, alone) | MIC (P. mirabiris GN2425; GN2425, read-out: MIC alone, drug alone, P. mirabiris GN2425) | MIC (P. mirabiris GN2425; GN2425, read-out: MIC concomitant, Concomitant (BIPM:SM = 1:1), P. mirabiris GN2425) | MIC (P. mirabiris GN2425; GN2425, read-out: MIC concomitant, Concomitant (PAPM:SM = 1:1), P. mirabiris GN2425) | MIC (E. coli ML1410; ML1410, Concomitant (CPFX:SM = 1:1), E. coli ML1410, read-out: MIC concomitant) | MIC (E. coli ML1410; ML1410, Concomitant (IPM:SM = 1:1), read-out: MIC) | MIC (E. coli ML1410; ML1410, Concomitant (PAPM:SM = 1:1), E. coli ML1410, read-out: MIC concomitant) | MIC (E. coli ML1410; ML1410, Concomitant (PIPC:SM = 1:1), E. coli ML1410, read-out: MIC concomitant) | MIC (E. coli NIHJ JC-2; NIHJJC2, alone, read-out: MIC) | MIC (E. coli NIHJ JC-2; NIHJJC2, drug alone, E. coli NIHJ JC-2, read-out: MIC alone)
≤ 0.016 µg/mL: MIC (B. subtilis ATCC6633; ATCC6633, Concomitant (MEPM:SM = 1:1), read-out: MIC) | MIC (P. mirabiris GN2425; GN2425, Concomitant (MEPM:SM = 1:1)) | MIC (K. pneumoniae ATCC10031; ATCC10031, Concomitant (MEPM:SM = 1:1), read-out: MIC) | MIC (E. coli ML1410; ML1410, Concomitant (MEPM:SM = 1:1), read-out: MIC) | MIC (E. coli NIHJ JC-2; NIHJJC2, Concomitant (MEPM:SM = 1:1), read-out: MIC)
0.063 µg/mL: MIC (P. mirabiris GN2425; GN2425, Concomitant (MEPM:SM = 1:2)) | MIC (P. mirabiris GN2425; GN2425, read-out: MIC concomitant, Concomitant (DRPM:SM = 1:1), P. mirabiris GN2425) | MIC (P. mirabiris GN2425; GN2425, read-out: MIC concomitant, Concomitant (PIPC:SM = 1:1), P. mirabiris GN2425) | MIC (E. coli ML1410; ML1410, Concomitant (AZT:SM = 1:1), E. coli ML1410, read-out: MIC concomitant) | MIC (E. coli ML1410; ML1410, Concomitant (BIPM:SM = 1:1), E. coli ML1410, read-out: MIC concomitant) | MIC (E. coli ML1410; ML1410, Concomitant (CAZ:SM = 1:1), E. coli ML1410, read-out: MIC concomitant) | MIC (E. coli NIHJ JC-2; NIHJJC2, Concomitant (AZT:SM = 1:1), E. coli NIHJ JC-2, read-out: MIC concomitant) | MIC (E. coli NIHJ JC-2; NIHJJC2, Concomitant (CAZ:SM = 1:1), E. coli NIHJ JC-2, read-out: MIC concomitant) | MIC (E. coli NIHJ JC-2; NIHJJC2, Concomitant (IPM:SM = 1:1), read-out: MIC) | MIC (E. coli NIHJ JC-2; NIHJJC2, Concomitant (PAPM:SM = 1:1), E. coli NIHJ JC-2, read-out: MIC concomitant) | MIC (E. coli NIHJ JC-2; NIHJJC2, Concomitant (PIPC:SM = 1:1), E. coli NIHJ JC-2, read-out: MIC concomitant)
≤ 0.008 µg/mL: MIC (B. subtilis ATCC6633; ATCC6633, Concomitant drug (MEPM:SM = 2:1), read-out: MIC) | MIC (B. subtilis ATCC6633; ATCC6633, alone, read-out: MIC) | MIC (K. pneumoniae ATCC10031; ATCC10031, Concomitant drug (MEPM:SM = 2:1), read-out: MIC) | MIC (E. coli ML1410; ML1410, Concomitant drug (MEPM:SM = 2:1), read-out: MIC) | MIC (E. coli NIHJ JC-2; NIHJJC2, Concomitant drug (MEPM:SM = 2:1), read-out: MIC)
0.25 µg/mL: MIC (E. faecium ATCC19434; ATCC19434, Concomitant (BIPM:SM = 1:1), E. faecium ATCC19434, read-out: MIC concomitant) | MIC (E. faecium ATCC19434; ATCC19434, Concomitant (CPFX:SM = 1:1), E. faecium ATCC19434, read-out: MIC concomitant) | MIC (E. faecium ATCC19434; ATCC19434, Concomitant (DRPM:SM = 1:1), E. faecium ATCC19434, read-out: MIC concomitant) | MIC (E. faecium ATCC19434; ATCC19434, Concomitant (MEPM:SM = 1:2), read-out: MIC) | MIC (E. faecium ATCC19434; ATCC19434, Concomitant drug (MEPM:SM = 2:1), read-out: MIC) | MIC (E. faecium ATCC19434; ATCC19434, alone, read-out: MIC) | MIC (E. faecium ATCC19434; ATCC19434, drug alone, E. faecium ATCC19434, read-out: MIC alone) | MIC (P. mirabiris GN2425; GN2425, Concomitant (IPM:SM = 1:1)) | MIC (E. coli ML1410; ML1410, alone, read-out: MIC) | MIC (E. coli ML1410; ML1410, drug alone, E. coli ML1410, read-out: MIC alone)
0.031 µg/mL: MIC (S. epidermidis IAM1296; Staphylococcus epidermidis, IAM1296, Concomitant drug (MEPM:SM = 2:1), read-out: MIC) | MIC (S. epidermidis IAM1296; Staphylococcus epidermidis, IAM1296, drug alone, S. epidermidis IAM1296, read-out: MIC alone) | MIC (S. epidermidis IAM1296; alone) | MIC (P. mirabiris GN2425; GN2425, read-out: MIC concomitant, Concomitant (CAZ:SM = 1:1), P. mirabiris GN2425) | MIC (P. mirabiris GN2425; GN2425, read-out: MIC concomitant, Concomitant (CPFX:SM = 1:1), P. mirabiris GN2425) | MIC (K. pneumoniae ATCC10031; ATCC10031, Concomitant (IPM:SM = 1:1), read-out: MIC) | MIC (E. coli ML1410; ML1410, Concomitant (DRPM:SM = 1:1), E. coli ML1410, read-out: MIC concomitant) | MIC (E. coli NIHJ JC-2; NIHJJC2, Concomitant (BIPM:SM = 1:1), E. coli NIHJ JC-2, read-out: MIC concomitant)
≤ 0.063 µg/mL: MIC (B. subtilis ATCC6633; ATCC6633, Concomitant (MEPM:SM = 1:4), read-out: MIC) | MIC (P. mirabiris GN2425; GN2425, Concomitant (MEPM:SM = 1:4)) | MIC (K. pneumoniae ATCC10031; ATCC10031, Concomitant (MEPM:SM = 1:4), read-out: MIC) | MIC (E. coli ML1410; ML1410, Concomitant (MEPM:SM = 1:4), read-out: MIC) | MIC (E. coli NIHJ JC-2; NIHJJC2, Concomitant (MEPM:SM = 1:4), read-out: MIC)
0.008 µg/mL: MIC (K. pneumoniae ATCC10031; ATCC10031, Concomitant (CAZ:SM = 1:1), K. pneumoniae ATCC10031, read-out: MIC concomitant) | MIC (K. pneumoniae ATCC10031; ATCC10031, Concomitant (DRPM:SM = 1:1), K. pneumoniae ATCC10031, read-out: MIC concomitant)
≤ 0.002 µg/mL: MIC (B. subtilis ATCC6633; ATCC6633, Concomitant (AZT:SM = 1:1), B. subtilis ATCC6633, read-out: MIC concomitant) | MIC (B. subtilis ATCC6633; ATCC6633, Concomitant (BIPM:SM = 1:1), B. subtilis ATCC6633, read-out: MIC concomitant) | MIC (B. subtilis ATCC6633; ATCC6633, Concomitant (CAZ:SM = 1:1), B. subtilis ATCC6633, read-out: MIC concomitant) | MIC (B. subtilis ATCC6633; ATCC6633, Concomitant (DRPM:SM = 1:1), B. subtilis ATCC6633, read-out: MIC concomitant) | MIC (B. subtilis ATCC6633; ATCC6633, Concomitant (IPM:SM = 1:1), read-out: MIC) | MIC (B. subtilis ATCC6633; ATCC6633, Concomitant (PAPM:SM = 1:1), B. subtilis ATCC6633, read-out: MIC concomitant) | MIC (B. subtilis ATCC6633; ATCC6633, Concomitant (PIPC:SM = 1:1), B. subtilis ATCC6633, read-out: MIC concomitant) | MIC (K. pneumoniae ATCC10031; ATCC10031, Concomitant (CPFX:SM = 1:1), K. pneumoniae ATCC10031, read-out: MIC concomitant) | MIC (E. coli NIHJ JC-2; NIHJJC2, Concomitant (CPFX:SM = 1:1), E. coli NIHJ JC-2, read-out: MIC concomitant)
0.016 µg/mL: MIC (S. epidermidis IAM1296; Staphylococcus epidermidis, IAM1296, Concomitant (PAPM:SM = 1:1), S. epidermidis IAM1296, read-out: MIC concomitant) | MIC (S. epidermidis IAM1296; Staphylococcus epidermidis, IAM1296, Concomitant (PIPC:SM = 1:1), S. epidermidis IAM1296, read-out: MIC concomitant) | MIC (S. epidermidis IAM1296; Staphylococcus epidermidis, IAM1296, alone, read-out: MIC) | MIC alone (S. epidermidis IAM1296; drug alone, S. epidermidis IAM1296) | MIC (P. mirabiris GN2425; GN2425, Concomitant drug (MEPM:SM = 2:1)) | MIC (K. pneumoniae ATCC10031; ATCC10031, Concomitant (BIPM:SM = 1:1), K. pneumoniae ATCC10031, read-out: MIC concomitant) | MIC (K. pneumoniae ATCC10031; ATCC10031, Concomitant (PAPM:SM = 1:1), K. pneumoniae ATCC10031, read-out: MIC concomitant) | MIC (K. pneumoniae ATCC10031; ATCC10031, Concomitant (PIPC:SM = 1:1), K. pneumoniae ATCC10031, read-out: MIC concomitant) | MIC (E. coli NIHJ JC-2; NIHJJC2, Concomitant (DRPM:SM = 1:1), E. coli NIHJ JC-2, read-out: MIC concomitant)
≤ 0.031 µg/mL: MIC (B. subtilis ATCC6633; ATCC6633, Concomitant (MEPM:SM = 1:2), read-out: MIC) | MIC (K. pneumoniae ATCC10031; ATCC10031, Concomitant (MEPM:SM = 1:2), read-out: MIC) | MIC (E. coli ML1410; ML1410, Concomitant (MEPM:SM = 1:2), read-out: MIC) | MIC (E. coli NIHJ JC-2; NIHJJC2, Concomitant (MEPM:SM = 1:2), read-out: MIC)
0.004 µg/mL: MIC (B. subtilis ATCC6633; ATCC6633, Concomitant (CPFX:SM = 1:1), B. subtilis ATCC6633, read-out: MIC concomitant) | MIC (B. subtilis ATCC6633; ATCC6633, drug alone, B. subtilis ATCC6633, read-out: MIC alone) | MIC (P. mirabiris GN2425; GN2425, read-out: MIC concomitant, Concomitant (AZT:SM = 1:1), P. mirabiris GN2425) | MIC (K. pneumoniae ATCC10031; ATCC10031, Concomitant (AZT:SM = 1:1), K. pneumoniae ATCC10031, read-out: MIC concomitant)
